Experimental data from the supplement of paper PMC10307832.

How the values were obtained:
Assay in all cases: relative viability (nuclei count vs DMSO), 5 days (fraction); higher = more cells survive
201T = test system: 201T
How it was run: (§1)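 Relative viability equals treated-well nuclei counts divided by vehicle-well nuclei counts. Counts came from 4× images of lung cancer cell lines grown in 1536-well plates for 5 days after pin-tool dosing on the day after seeding. Dosing used one drug alone or a fixed anchor-drug dose plus five library-drug doses (not always all listed) in √10 steps, and values are medians of duplicate plates.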

BEN = test system: BEN
How it was run: as §1

COR-L 105 = test system: COR-L 105
How it was run: as §1

COR-L23 = test system: COR-L23
How it was run: as §1

EKVX = test system: EKVX
How it was run: as §1

HCC-15 = test system: HCC-15
How it was run: as §1

HCC-366 = test system: HCC-366
How it was run: as §1

HCC-78 = test system: HCC-78
How it was run: as §1

HCC-827 = test system: HCC-827
How it was run: as §1

LC-2-ad = test system: LC-2-ad
How it was run: as §1

LK-2 = test system: LK-2
How it was run: as §1

LU99A = test system: LU99A
How it was run: as §1

NCI-H1650 = test system: NCI-H1650
How it was run: as §1

NCI-H1734 = test system: NCI-H1734
How it was run: as §1

NCI-H1755 = test system: NCI-H1755
How it was run: as §1

NCI-H1915 = test system: NCI-H1915
How it was run: as §1

NCI-H1944 = test system: NCI-H1944
How it was run: as §1

NCI-H2347 = test system: NCI-H2347
How it was run: as §1

NCI-H441 = test system: NCI-H441
How it was run: as §1

PC-3 [JPC-3] = test system: PC-3 [JPC-3]
How it was run: as §1

RERF-LC-KJ = test system: RERF-LC-KJ
How it was run: as §1

Oc1nc(-c2ccc(C(F)(F)F)cc2)nc2c1CSCC2 [XAV939] + CC1(C)CCC(c2ccc(Cl)cc2)=C(CN2CCN(c3ccc(C(=O)NS(=O)(=O)c4ccc(N[C@H](CCN5CCOCC5)CSc5ccccc5)c(S(=O)(=O)C(F)(F)F)c4)cc3)CC2)C1 [Navitoclax] (partner 0.5 µM)
relative viability (201T; first compound 0.08 µM): 1.21 | relative viability (201T; first compound 0.253 µM): 1.13 | relative viability (201T; first compound 0.8 µM): 1.09 | relative viability (201T; first compound 2.53 µM): 1.16 | relative viability (BEN; first compound 0.08 µM): 0.0604 | relative viability (BEN; first compound 0.253 µM): 0.0746 | relative viability (BEN; first compound 0.8 µM): 0.0568 | relative viability (COR-L 105; first compound 0.08 µM): 0.754 | relative viability (COR-L 105; first compound 0.253 µM): 0.62 | relative viability (COR-L 105; first compound 0.8 µM): 0.637 | relative viability (COR-L 105; first compound 2.53 µM): 0.458 | relative viability (COR-L23; first compound 0.08 µM): 1 | relative viability (COR-L23; first compound 0.253 µM): 0.855 | relative viability (COR-L23; first compound 0.8 µM): 0.948 | relative viability (COR-L23; first compound 2.53 µM): 0.892 | relative viability (EKVX; first compound 0.08 µM): 1.02 | relative viability (EKVX; first compound 0.253 µM): 0.814 | relative viability (EKVX; first compound 0.8 µM): 0.57 | relative viability (EKVX; first compound 2.53 µM): 0.557 | relative viability (HCC-15; first compound 0.08 µM): 0.719 | relative viability (HCC-15; first compound 0.253 µM): 0.612 | relative viability (HCC-15; first compound 0.8 µM): 0.678 | relative viability (HCC-15; first compound 2.53 µM): 0.684 | relative viability (HCC-366; first compound 0.08 µM): 1.12 | relative viability (HCC-366; first compound 0.253 µM): 1.09 | relative viability (HCC-366; first compound 0.8 µM): 1.05 | relative viability (HCC-366; first compound 2.53 µM): 0.942 | relative viability (HCC-78; first compound 0.08 µM): 0.842 | relative viability (HCC-78; first compound 0.253 µM): 0.736 | relative viability (HCC-78; first compound 0.8 µM): 0.825 | relative viability (HCC-78; first compound 2.53 µM): 0.613 | relative viability (HCC-827; first compound 0.08 µM): 1.02 | relative viability (HCC-827; first compound 0.253 µM): 1.02 | relative viability (HCC-827; first compound 0.8 µM): 0.975 | relative viability (HCC-827; first compound 2.53 µM): 1.04 | relative viability (LC-2-ad; first compound 0.08 µM): 0.389 | relative viability (LC-2-ad; first compound 0.253 µM): 0.429 | relative viability (LC-2-ad; first compound 0.8 µM): 0.6 | relative viability (LC-2-ad; first compound 2.53 µM): 0.428 | relative viability (LK-2; first compound 0.08 µM): 1.07 | relative viability (LK-2; first compound 0.253 µM): 0.757 | relative viability (LK-2; first compound 0.8 µM): 0.928 | relative viability (LK-2; first compound 2.53 µM): 0.631 | relative viability (LU99A; first compound 0.08 µM): 0.939 | relative viability (LU99A; first compound 0.253 µM): 0.708 | relative viability (LU99A; first compound 0.8 µM): 0.683 | relative viability (LU99A; first compound 2.53 µM): 0.708 | relative viability (NCI-H1650; first compound 0.08 µM): 1.18 | relative viability (NCI-H1650; first compound 0.253 µM): 1.25 | relative viability (NCI-H1650; first compound 0.8 µM): 1.05 | relative viability (NCI-H1650; first compound 2.53 µM): 0.653 | relative viability (NCI-H1734; first compound 0.08 µM): 0.921 | relative viability (NCI-H1734; first compound 0.253 µM): 0.866 | relative viability (NCI-H1734; first compound 0.8 µM): 0.856 | relative viability (NCI-H1734; first compound 2.53 µM): 0.855 | relative viability (NCI-H1755; first compound 0.08 µM): 0.945 | relative viability (NCI-H1755; first compound 0.253 µM): 0.796 | relative viability (NCI-H1755; first compound 0.8 µM): 0.907 | relative viability (NCI-H1755; first compound 2.53 µM): 0.853 | relative viability (NCI-H1915; first compound 0.08 µM): 0.813 | relative viability (NCI-H1915; first compound 0.253 µM): 0.793 | relative viability (NCI-H1915; first compound 0.8 µM): 0.769 | relative viability (NCI-H1915; first compound 2.53 µM): 0.792 | relative viability (NCI-H1944; first compound 0.08 µM): 1.07 | relative viability (NCI-H1944; first compound 0.253 µM): 0.986 | relative viability (NCI-H1944; first compound 0.8 µM): 1.01 | relative viability (NCI-H1944; first compound 2.53 µM): 1.1 | relative viability (NCI-H2347; first compound 0.08 µM): 0.788 | relative viability (NCI-H2347; first compound 0.253 µM): 0.886 | relative viability (NCI-H2347; first compound 0.8 µM): 0.75 | relative viability (NCI-H2347; first compound 2.53 µM): 0.698 | relative viability (NCI-H441; first compound 0.08 µM): 0.571 | relative viability (NCI-H441; first compound 0.253 µM): 0.683 | relative viability (NCI-H441; first compound 0.8 µM): 0.487 | relative viability (NCI-H441; first compound 2.53 µM): 0.973 | relative viability (PC-3 [JPC-3]; first compound 0.08 µM): 0.728 | relative viability (PC-3 [JPC-3]; first compound 0.253 µM): 0.737 | relative viability (PC-3 [JPC-3]; first compound 0.8 µM): 0.814 | relative viability (PC-3 [JPC-3]; first compound 2.53 µM): 0.724 | relative viability (RERF-LC-KJ; first compound 0.08 µM): 0.905 | relative viability (RERF-LC-KJ; first compound 0.253 µM): 0.999 | relative viability (RERF-LC-KJ; first compound 0.8 µM): 0.804 | relative viability (RERF-LC-KJ; first compound 2.53 µM): 0.452
